Laboratory results from patent publication US6451850B1, “Bio-chemical germanium complexes with high therapeutic efficiency and wide application spectrum” (priority 2001, dated 2002).
Where “and” joins values, the source holds several entries; their conditions need not be identical. Identical values can stand only once.

Columns and labels:
[1] = Antiinflammatory effect, formalin paw edema (method by Ju. Strel'nikov); assay type: in vivo; conditions: white mice, into the stomach, dose equimolecular to 20 mg/kg of indometacin, two hours before formalin
From the text: Strel'nikov. […] Simultaneously antiinflammatory activity of indometacin was studied for comparison.

[2] = Table 4
Procedure: Water solutions or suspensions of the complexes under investigation have been injected intraperitoneally 30÷60 min. before beginning of the experiment. Animals from the control group got equal amounts of physiological salt solution. High altitude hypoxia was made in special air tight chambers, in which a lift of the animals up to the altitude 10,000 m has been imitated by pumping out of air. A criterion of validity for the complexes was increase of mice life length and survivability of these.
Interferon inducing activity of the complexes has been studied with various methods, including the study with native leukocytes of human donor blood.
Antiinflammatory effect has been studied for animals according to the method by Ju. Strel'nikov. Experiments have been carried out with white mice of mass 20 g. Aseptic inflammation was caused by injection of 0.1 ml of 2.5% formalin solution into thigh thickness of an animal's paw. A compound under investigation was injected into the stomach in the dose equimolecular to 20 mg/kg of indometacin two hours before the injection of formalin. Distinction of the edema was estimated by increase of a mass of inflamed and uninflammed paws in experimental groups of animals compared to control ones. […] Simultaneously antiinflammatory activity of indometacin was studied for comparison.

[3] = test system: virus of herpes simplex (VHS) of the 2-nd antigenic type; assay: Experimental herpes genitalis of male guinea pigs, treatment with Virolex or its OGC complex; assay type: in vivo; conditions: for Duration of the Disease: treatment begun 48 hours after infecting
From the text: VIRUSES. The virus of herpes simplex (VHS) of the 2-nd antigenic type was implied in this work. Clinical symptoms of experimental herpes genitalis were registered daily before carrying out of treatment and were followed during the course of the disease.
The following parameters were used as criteria of infectious process danger: square and specific damage rate—presence of an edema, hyperemia, orchitis. Maximum distinction of each symptom made up 4 points. The present symptoms allow to buildup a scale and to express the course of the disease for each group under investigation from beginning of appearance of the first symptoms of the disease up to full disappearance of these. In this case index of therapeutic effect (ITE) is expressed with the following formula: [formula]
Treatment was began 48 hours after infecting when symptoms of the disease were distinct enough.
The first group included animals infected with VHS-2 and not subjected to treatment with any medicament.
The second group included animals infected with VHS-2 and subjected to treatment with 5 mg of Virolex once a day.
The third group included animals infected with VHS-2 and subjected to treatment with 5 mg of Virolex complex with OGC once a day.

[4] = guinea pigs infected with VHS-2, 5 mg once a day

In the case of COc1ccc2c(c1)c(CC(=O)O)c(C)n2C(=O)c1ccc(Cl)cc1 [Indometacin], the “reduction of the edema compared to the control group” value [1] is reported as 33.4%.
For C[CH2][Ge]12[O]CCN(CC[O]1)CC(=O)[O]2.Nc1nc2c(ncn2COCCO)c(=O)[nH]1 [Virolex OGC (R = C2H5, R1, R2 = O)], the “Expansion of Effect Spectrum for the Complex Medicament” value (shortened to “Expansion of Effect Spectrum”) [2] was “- . -”.
With Nc1nc2c(ncn2COCCO)c(=O)[nH]1.[OH][Ge]12[O]CCN(CC[O]1)CC[O]2 [Virolex OGC (R = OH), complex of 1-hydroxy-1-germa-2,8,9-trioxy-5-azatricyclo[3.3.3.0^1,5]undecane with Virolex] the “convalescent earlier than in the second group (Virolex)” value ([3]; 5 mg once a day) was 4.9 days, the “day of convalescence after infecting” value ([3]; 5 mg once a day) was “sixth” and the “Duration of the Disease” value [3, 4] was 6,2 ± 1,8 Days. The “toxic effect on infected animals compared to pure Virolex” value ([3]; infected guinea pigs) was “decreased its toxic effect”.
In the case of Nc1nc2c(ncn2COCCO)c(=O)[nH]1 [Virolex, reference compound], the “Total Index of Symptoms Distinction” value [3, 4] is reported as 21 Points and 31,0 Points, the “Duration of the Disease” value [3, 4] is reported as 11,1 ± 2,01 Days and the “Index of Therapeutic Effect (ITE)” value ([3]; guinea pigs infected with VHS-2, 5 mg once a day, versus control group) is reported as 58%.
For Cc1cn([C@H]2C[C@H](N=[N+]=[N-])[C@@H](CO)O2)c(=O)[nH]c1=O.[CH3][Ge]([CH3])([CH3])[O][Ge]12[O]CCN(CC[O]1)CC[O]2 [Zidovudine OGC (R = OGeMe3)], the “Expansion of Effect Spectrum” value [2] was “- . -”.
In the case of Cc1cn([C@H]2C[C@H](N=[N+]=[N-])[C@@H](CO)O2)c(=O)[nH]c1=O.[OH][Ge]12[O]CCN(CC[O]1)CC[O]2 [Zidovudine OGC (R = OH)], the “Expansion of Effect Spectrum” value [2] is reported as “- . -”.
In the case of C[Si](C)(C)[O][Ge]12[O]CCN(CC[O]1)CC[O]2.Cc1cn([C@H]2C[C@H](N=[N+]=[N-])[C@@H](CO)O2)c(=O)[nH]c1=O [Zidovudine OGC (R = OSiMe3)], the “Expansion of Effect Spectrum” value [2] is reported as “- . -”.
With Cc1cn([C@H]2C[C@H](N=[N+]=[N-])[C@@H](CO)O2)c(=O)[nH]c1=O.[SH][Ge]12[O]CCN(CC[O]1)CC[O]2 [Zidovudine OGC (R = SH)] the “Expansion of Effect Spectrum” value [2] was “- . -”.
